Converted amounts (≈) assume the structure as drawn.
Key:
Format in all cases: functional
Staphylococcus aureus = assay: Antibacterial activity against Staphylococcus aureus by two-fold dilution method; details: for MIC: Staphylococcus aureus
Cutibacterium acnes = assay: Antibacterial activity against Propionibacterium acnes by two-fold dilution method
Pseudomonas aeruginosa = assay: Antibacterial activity against Pseudomonas aeruginosa by two-fold dilution method
Escherichia coli = assay: Antibacterial activity against Escherichia coli by two-fold dilution method
Candida albicans = assay: […] activity against Candida albicans by two-fold dilution method; details: for MIC: Candida albicans

Row | SMILES | -logMIC (Staphylococcus aureus) | MIC (Staphylococcus aureus) [µg/mL] | MIC (Cutibacterium acnes) [µg/mL] | MIC (Pseudomonas aeruginosa) [µg/mL] | MIC (Escherichia coli) [µg/mL] | -logMIC (Candida albicans) | MIC (Candida albicans) [µg/mL]
1 | COC(=O)CCC[C@@H]1[C@H]2CCCN3CCC[C@@H](CN1C(=O)c1cc4ccc(Cl)cc4n1Cc1cc(C(C)(C)C)cc(C(C)(C)C)c1)[C@@H]23 | 1.032 | 0.093 (≈ 0.141 µM) | 0.29 (≈ 0.439 µM) | 0.466 (≈ 0.706 µM) | 1.49 (≈ 2.25 µM) | -0.955 | 9.02 (≈ 13.7 µM)
2 | COC(=O)CCC[C@@H]1[C@H]2CCCN3CCC[C@@H](CN1C(=O)c1cc4ccc(Cl)cc4n1Cc1cccc(OCc4ccccc4)c1)[C@@H]23 | 0.932 | 0.117 (≈ 0.179 µM) | 0.093 (≈ 0.142 µM) | 0.975 (≈ 1.49 µM) | 0.894 (≈ 1.37 µM) | -0.991 | 9.8 (≈ 15 µM)
3 | COC(=O)CCC[C@@H]1[C@H]2CCCN3CCC[C@@H](CN1C(=O)c1cc4ccc(Cl)cc4n1Cc1cccc(C(F)(F)F)c1)[C@@H]23 | 0.866 | 0.136 (≈ 0.221 µM) | 0.058 (≈ 0.0941 µM) | 0.234 (≈ 0.38 µM) | 0.559 (≈ 0.907 µM) | -0.655 | 4.52 (≈ 7.33 µM)
4 | COC(=O)CCC[C@@H]1[C@H]2CCCN3CCC[C@@H](CN1C(=O)c1cc4ccc(Cl)cc4n1Cc1ccc(F)cc1Br)[C@@H]23 | 0.458 | 0.348 (≈ 0.54 µM) | 0.351 (≈ 0.544 µM) | 0.445 (≈ 0.69 µM) | 1.04 (≈ 1.62 µM) | -0.942 | 8.74 (≈ 13.6 µM)
5 | COC(=O)CCC[C@@H]1[C@H]2CCCN3CCC[C@@H](CN1C(=O)c1cc4ccc(Cl)cc4n1Cc1cc(C#N)ccc1F)[C@@H]23 | 0.587 | 3.86 (≈ 6.54 µM) | 0.2 (≈ 0.338 µM) | 0.658 (≈ 1.11 µM) | 0.644 (≈ 1.09 µM) | -1.02 | 10.6 (≈ 17.9 µM)
6 | COC(=O)CCC[C@@H]1[C@H]2CCCN3CCC[C@@H](CN1C(=O)c1cc4ccc(Cl)cc4n1Cc1cc(Cl)ccc1F)[C@@H]23 | 1.013 | 0.097 (≈ 0.162 µM) | 0.084 (≈ 0.14 µM) | 0.5 (≈ 0.833 µM) | 0.848 (≈ 1.41 µM) | -0.739 | 5.48 (≈ 9.12 µM)
7 | COC(=O)CCC[C@@H]1[C@H]2CCCN3CCC[C@@H](CN1C(=O)c1cc4ccc(Cl)cc4n1Cc1cc(OC)ccc1Br)[C@@H]23 | 0.111 | 0.774 (≈ 1.18 µM) | 0.175 (≈ 0.266 µM) | 0.323 (≈ 0.492 µM) | 0.933 (≈ 1.42 µM) | -0.997 | 9.92 (≈ 15.1 µM)
8 | COC(=O)CCC[C@@H]1[C@H]2CCCN3CCC[C@@H](CN1C(=O)c1cc4ccc(Cl)cc4n1Cc1ccccc1C(C)(C)C)[C@@H]23 | 0.75 | 0.178 (≈ 0.295 µM) | 0.354 (≈ 0.586 µM) | 0.926 (≈ 1.53 µM) | 1.14 (≈ 1.88 µM) | -0.898 | 7.9 (≈ 13.1 µM)
9 | COC(=O)CCC[C@@H]1[C@H]2CCCN3CCC[C@@H](CN1C(=O)c1cc4ccc(Cl)cc4n1Cc1ccccc1C#N)[C@@H]23 | 0.319 | 0.48 (≈ 0.837 µM) | 0.848 (≈ 1.48 µM) | 0.693 (≈ 1.21 µM) | 0.823 (≈ 1.44 µM) | -1.05 | 11.2 (≈ 19.6 µM)
10 | O=C1CCC[C@@H]2[C@H]3CCCN4CCC[C@@H](CN12)[C@@H]34 [MATRINE] | – | 7.43 (≈ 29.9 µM) | 16 (≈ 64.3 µM) | 6.73 (≈ 27.1 µM) | 5.46 (≈ 22 µM) | – | 8 (≈ 32.2 µM)
